Measurements published in ChEMBL document CHEMBL3259571, “Diacylglycerol lactones targeting the structural features that distinguish the atypical C1 domains of protein kinase C ζ and ι from typical C1 domains” (J Med Chem, 2014).

Key:
[1] = molecular target: Protein kinase C delta type (Mus musculus, UniProt P28867); assay: Displacement of [20-3H]PDBu from GST-tagged full-length mouse PKC-delta C1B domain expressed in Escherichia coli after 2 to 30 mins by polyethylene glycol precipitation assay in presence of phosphatidylserine
Sequence of Protein kinase C delta type (P28867 whole entry, the tested form may be a part): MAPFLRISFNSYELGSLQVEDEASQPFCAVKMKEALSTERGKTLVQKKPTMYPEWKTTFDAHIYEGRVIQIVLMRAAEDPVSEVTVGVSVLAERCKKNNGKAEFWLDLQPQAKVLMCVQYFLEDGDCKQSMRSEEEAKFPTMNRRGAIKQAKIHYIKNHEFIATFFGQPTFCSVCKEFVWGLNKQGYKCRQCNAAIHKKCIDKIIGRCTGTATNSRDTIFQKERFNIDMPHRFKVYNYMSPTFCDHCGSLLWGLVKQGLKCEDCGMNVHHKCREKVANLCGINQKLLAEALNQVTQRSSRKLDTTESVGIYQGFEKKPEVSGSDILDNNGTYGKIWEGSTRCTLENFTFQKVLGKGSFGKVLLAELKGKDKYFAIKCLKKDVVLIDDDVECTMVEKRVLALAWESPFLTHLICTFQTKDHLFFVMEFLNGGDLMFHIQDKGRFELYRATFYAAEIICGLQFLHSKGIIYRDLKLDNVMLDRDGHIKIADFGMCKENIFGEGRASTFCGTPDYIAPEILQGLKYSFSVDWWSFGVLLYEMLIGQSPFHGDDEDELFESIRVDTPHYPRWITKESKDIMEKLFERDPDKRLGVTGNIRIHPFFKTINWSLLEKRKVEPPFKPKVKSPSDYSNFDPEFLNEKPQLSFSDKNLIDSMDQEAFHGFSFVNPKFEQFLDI

[2] = Displacement of [20-3H]PDBu from GST-tagged mouse PKC-delta C1B domain N7R mutant expressed in Escherichia coli after 2 to 30 mins by polyethylene glycol precipitation assay in presence of phosphatidylserine
[3] = Displacement of [20-3H]PDBu from GST-tagged mouse PKC-delta C1B domain S10R mutant expressed in Escherichia coli after 2 to 30 mins by polyethylene glycol precipitation assay in presence of phosphatidylserine
[4] = Displacement of [20-3H]PDBu from GST-tagged mouse PKC-delta C1B domain P11R mutant expressed in Escherichia coli after 2 to 30 mins by polyethylene glycol precipitation assay in presence of phosphatidylserine
[5] = Displacement of [20-3H]PDBu from GST-tagged mouse PKC-delta C1B domain L20R mutant expressed in Escherichia coli after 2 to 30 mins by polyethylene glycol precipitation assay in presence of phosphatidylserine
[6] = Displacement of [20-3H]PDBu from GST-tagged mouse PKC-delta C1B domain N7R/P11R mutant expressed in Escherichia coli after 2 to 30 mins by polyethylene glycol precipitation assay in presence of phosphatidylserine
[7] = Displacement of [20-3H]PDBu from GST-tagged mouse PKC-delta C1B domain N7R/L20R mutant expressed in Escherichia coli after 2 to 30 mins by polyethylene glycol precipitation assay in presence of phosphatidylserine
[8] = species: Mus musculus; assay: Selectivity ratio of Ki for GST-tagged mouse PKC-delta C1B domain N7R mutant to Kd for GST-tagged full-length mouse PKC-delta C1B domain
[9] = species: Mus musculus; assay: Selectivity ratio of Ki for GST-tagged mouse PKC-delta C1B domain S10R mutant to Kd for GST-tagged full-length mouse PKC-delta C1B domain
[10] = species: Mus musculus; assay: Selectivity ratio of Ki for GST-tagged mouse PKC-delta C1B domain P11R mutant to Kd for GST-tagged full-length mouse PKC-delta C1B domain
[11] = species: Mus musculus; assay: Selectivity ratio of Ki for GST-tagged mouse PKC-delta C1B domain L20R mutant to Kd for GST-tagged full-length mouse PKC-delta C1B domain
[12] = species: Mus musculus; assay: Selectivity ratio of Ki for GST-tagged mouse PKC-delta C1B domain N7R/P11R mutant to Kd for GST-tagged full-length mouse PKC-delta C1B domain
[13] = species: Mus musculus; assay: Selectivity ratio of Ki for GST-tagged mouse PKC-delta C1B domain N7R/L20R mutant to Kd for GST-tagged full-length mouse PKC-delta C1B domain
[14] = species: Mus musculus; assay: Selectivity ratio of Kd for GST-tagged full-length mouse PKC-delta C1B domain to Ki for GST-tagged mouse PKC-delta C1B domain P11R mutant
[15] = Displacement of [20-3H]PDBu from GST-tagged mouse PKC-delta C1B domain N7R/S10R/P11R mutant expressed in Escherichia coli after 2 to 30 mins by polyethylene glycol precipitation assay in presence of phosphatidylserine
[16] = Displacement of [20-3H]PDBu from GST-tagged mouse PKC-delta C1B domain N7R/S10R/L20R mutant expressed in Escherichia coli after 2 to 30 mins by polyethylene glycol precipitation assay in presence of phosphatidylserine
[17] = species: Mus musculus; assay: Selectivity ratio of Ki for GST-tagged mouse PKC-delta C1B domain N7R/S10R/P11R mutant to Kd for GST-tagged full-length mouse PKC-delta C1B domain
[18] = species: Mus musculus; assay: Selectivity ratio of Ki for GST-tagged mouse PKC-delta C1B domain N7R/S10R/L20R mutant to Kd for GST-tagged full-length mouse PKC-delta C1B domain

SMILES	Kd [1] [nM]	Selectivity ratio [8]	Selectivity ratio [9]	Selectivity ratio [10]	Selectivity ratio [11]	Selectivity ratio [12]	Selectivity ratio [13]	Selectivity ratio [14]	Ki [2] [nM]	Ki [3] [nM]	Ki [4] [nM]	Ki [5] [nM]	Ki [6] [nM]	Ki [7] [nM]	Ki [15] [nM]	Ki [16] [nM]	Selectivity ratio [17]	Selectivity ratio [18]
CC(C)C(CC(=O)OCC1(CO)C/C(=C\c2cccc(C(=O)O)c2)C(=O)O1)C(C)C (configuration not stated)	2100	0.3	0.4	0.2	1.34	2.47	21.8	5	640	840	421	2820	5190	45900				
CC(C)C(CC(=O)OCC1(CO)C/C(=C\c2ccc(C(=O)O)cc2)C(=O)O1)C(C)C (configuration not stated)	560	1.41	1.45	1.27	12.4	6.79	209		787	813	710	6900	3800	117000				
CC(C)CC(C/C=C1\CC(CO)(COC(=O)C(C)(CO)CO)OC1=O)CC(C)C (configuration not stated)	777	1.04	1.44	2.61	1.04	30.7	9.83		806	1120	2030	810	23800	7640	47000	7830	60.5	10.1
CC(C)C(CC(=O)OCC1(CO)C/C(=C/c2ccc(C(=O)O)cc2)C(=O)O1)C(C)C (configuration not stated)	865	0.55	0.57	1.09	3.25	3.25	60		473	496	940	2810	2810	51900				
CC(C)(C)C(=O)OCC1(CO)C/C(=C\c2cccc(C(=O)O)c2)C(=O)O1 (configuration not stated)	1210	1.44	1.46	2.79	4.57	13.2	87		1740	1760	3360	5500	16000	105000				
CC(C)(C)C(=O)OCC1(CO)C/C(=C\c2ccc(C(=O)O)cc2)C(=O)O1 (configuration not stated)	1070	0.82	0.62	0.93	5.74	3.49	78		880	667	998	6140	3700	83400				
CC(C)CC(CC(=O)OCC1(CO)C/C(=C\c2cccc(C(=O)O)c2)C(=O)O1)CC(C)C (configuration not stated)	300	0.94	1.56	0.33	5.33			3	281	468	100	1600						
CCCC(=O)O[C@@H]1[C@@H](C)[C@@]2(O)[C@@H](C=C(CO)C[C@]3(O)C(=O)C(C)=C[C@@H]23)[C@@H]2C(C)(C)[C@]12OC(=O)CCC	0.23								1.18	0.32		8	33.8	480	19.6	1360		

Continued, in another order:

Kd [1] [nM]	Selectivity ratio [8]	Selectivity ratio [9]	Selectivity ratio [10]	Selectivity ratio [11]	Selectivity ratio [12]	Selectivity ratio [13]	Selectivity ratio [14]	SMILES	Ki [2] [nM]	Ki [3] [nM]	Ki [4] [nM]	Ki [5] [nM]	Ki [6] [nM]	Ki [7] [nM]	Ki [15] [nM]	Ki [16] [nM]	Selectivity ratio [17]	Selectivity ratio [18]
2.95	1.12	0.79	3.53	4.75	12.5	81		CC(C)C(CC(=O)OCC1(CO)C/C(=C\c2ccccc2O)C(=O)O1)C(C)C (configuration not stated)	3.29	2.33	10.4	14	37	239	63	661	21.3	224
1	0.9	1.5	1.7	17.3				CC(C)CC(CC(=O)OCC1(CO)C/C(=C\c2ccccc2C(C(=O)OC(C)(C)C)C(=O)OC(C)(C)C)C(=O)O1)CC(C)C (configuration not stated)	0.9	1.5	1.7	17.3						
96	1.25	0.98	1.25	7.7				CC(C)CC(CC(=O)OCC1(CO)C/C(=C\c2ccc(C(=O)O)cc2)C(=O)O1)CC(C)C (configuration not stated)	120	94	120	739						
0.5	1.2	1.2	2	17.6				CC(C)CC(CC(=O)OCC1(CO)C/C(=C\c2cccc(C(C(=O)OC(C)(C)C)C(=O)OC(C)(C)C)c2)C(=O)O1)CC(C)C (configuration not stated)	0.6	0.6	1	8.8						
2.46	1.01	0.85	0.94	7.87				CC(C)C(CC(=O)OCC1(CO)C/C(=C\c2cccc(O)c2)C(=O)O1)C(C)C (configuration not stated)	2.48	2.08	2.32	19.4						
0.6	1.17	1	2	17.5				CC(C)CC(CC(=O)OCC1(CO)C/C(=C\c2ccc(C(C(=O)OC(C)(C)C)C(=O)OC(C)(C)C)cc2)C(=O)O1)CC(C)C (configuration not stated)	0.7	0.6	1.2	10.5						
2.95	0.67	0.4	0.5	3.2				CC(C)C(CC(=O)OCC1(CO)C/C(=C\c2ccc(O)cc2)C(=O)O1)C(C)C (configuration not stated)	1.99	1.18	1.48	9.4						
